Results from the PolyMetriX glass transition set.
± gives the standard deviation of the reports.

Row | glass transition temperature | Compound
1 | 260.00 °C | *Oc1ccc(-c2ccc(-c3cc(-c4ccccc4)c(-c4ccc(-c5ccc(OC(=O)c6ccc(C(*)=O)cc6-c6ccccc6)cc5)cc4)c(-c4ccccc4)c3-c3ccccc3)cc2)cc1 (repeat unit)
2 | 53.00 °C | */C=C(\C#N)C(=O)OCCCCCCOC(=O)/C(C#N)=C/c1ccc2c(c1)c1cc(*)ccc1n2CCCCCCCCCCCCCC (repeat unit)
3 | 230.00 °C | *c1cc(C(=O)Oc2ccc(-c3ccc(O[Si](C)(C)C(C)(C)C)cc3)cc2)cc(N2C(=O)c3ccc(-c4ccc5c(c4)C(=O)N(*)C5=O)cc3C2=O)c1 (repeat unit)
4 | 290.00 °C | *C(=O)c1ccc2c(c1)C(=O)N(c1ccc(Cc3ccccc3N3C(=O)c4ccc(*)cc4C3=O)cc1)C2=O (repeat unit)
5 | 98.00 °C | *c1ccc(C(=O)OCCCCCCCCOc2ccc(/C=C3\CCCC/C(=C\c4ccc(OCCCCCCCCOC(=O)c5ccc(-c6nnc(*)o6)cc5)cc4)C3=O)cc2)cc1 (repeat unit)
6 | 156.00 °C | *SCC(=O)N/N=C/c1ccc(OCCCCCCCCCCOc2ccc(/C=N/NC(=O)CSc3nnc(*)s3)cc2OC)c(OC)c1 (repeat unit)
7 | 237.00 °C | *c1ccc(C(=O)NNC(=O)c2ccc(C(=O)NNC(=O)c3ccc(C4(*)OC(=O)c5ccccc54)cc3)cc2)cc1 (repeat unit)
8 | 104.60 °C | *NNC(=O)/C=C/C(=O)Nc1cccc(/C=C2\CC/C(=C\c3cccc(NC(=O)/C=C/C(*)=O)c3)C2=O)c1 (repeat unit)
9 | 111.00 °C | *CC(COc1ccc(-c2ccc(OC)cc2)cc1)O* (repeat unit)
10 | 249.00 °C | *c1ccc(Oc2ccccc2Oc2ccc(N3C(=O)c4ccc(-c5ccc6c(c5)C(=O)N(*)C6=O)cc4C3=O)cc2C(F)(F)F)c(C(F)(F)F)c1 (repeat unit)
11 | 55.00 °C | *CNC(=O)OCc1ccc(COC(=O)NCc2ccc(C(C)(C)c3ccc(*)o3)o2)o1 (repeat unit)
12 | 266.00 °C | *c1ccc(-c2ccc(N3C(=O)c4ccc(Oc5ccc(Oc6ccc7c(c6)C(=O)N(*)C7=O)cc5)cc4C3=O)cc2)cc1 (repeat unit)
13 | 193.00 °C | *C(=O)c1ccccc1-c1ccccc1C(=O)N1CCN(*)CC1 (repeat unit)
14 | 132.00 °C | *CCCC(=O)Oc1ccc(OC(=O)c2ccc3c(c2)C(=O)N(*)C3=O)cc1 (repeat unit)
15 | 69.00 °C | *Oc1ccc(/N=C/CCC/C=N/c2ccc(OC(=O)Nc3cc(NC(*)=O)ccc3C)cc2)cc1 (repeat unit)
16 | 36.00 °C | *CC(*)(C)C(=O)OCCCCCCCCCCn1c2ccccc2c2cc(/N=N/c3ccc([N+](=O)[O-])cc3)ccc21 (repeat unit)
17 | 269.50 °C | *c1ccc(Oc2ccc(-n3c(=O)c4c(Oc5ccc(OCCCC)cc5)c5c(=O)n(*)c(=O)c5c(Oc5ccc(OCCCC)cc5)c4c3=O)cc2)cc1 (repeat unit)
18 | 42.00 °C | *CCCCOC(=O)c1ccc([Si](C)(C)c2ccc(C(=O)O*)cc2)cc1 (repeat unit)
19 | 114.00 °C | */C=C/c1sc(-c2ccc(-c3sc(/C=C/C4=CC(=C(C#N)C#N)C=C(*)O4)c(CCCCCC)c3CCCCCC)s2)c(CCCCCC)c1CCCCCC (repeat unit)
20 | 248.00 °C | *Nc1ccccc1-c1ccc(NC(=O)c2cccc(C(*)=O)c2)cc1 (repeat unit)
21 | 136.00 °C | *Oc1ccc(C(=O)c2cccc(C(=O)c3ccc(*)c(C(C)C)c3)c2)cc1CC (repeat unit)
22 | 169.00 °C | *Oc1ccc(NC(=O)c2ccc(Oc3ccc(C(C)(C)c4ccc(C(C)(C)c5ccc(Oc6ccc(C(=O)Nc7ccc(Oc8ccc(C(c9ccc(*)cc9)(C(F)(F)F)C(F)(F)F)cc8)cc7)cc6)cc5)cc4)cc3)cc2)cc1 (repeat unit)
23 | 44.00 °C | *O[Si](*)(C)OCCCCCCCCCCCOc1ccc(C2COC(c3ccc(OC)cc3)OC2)cc1 (repeat unit)
24 | 178.00 °C | *=Nc1cccc(/N=C(/C=C/C(=*)c2ccccc2)c2ccccc2)c1 (repeat unit)
25 | 341.00 °C | *c1ccc(N2C(=O)c3ccc(-c4ccc5c(c4)C(=O)N(*)C5=O)cc3C2=O)cc1 (repeat unit)
26 | 113.00 °C | *Oc1cccc(N(c2ccccc2)c2ccc(-c3ccc(N(c4ccccc4)c4cccc(OC(=O)OCCOCCOC(*)=O)c4)cc3)cc2)c1 (repeat unit)

Row | glass transition temperature | Compound
27 | 204.50 °C | *Nc1ccc(NC(=O)c2ccc(NC(=O)CCCCCCCCCCCCC(=O)Nc3ccc(C(*)=O)cc3)cc2)cc1C(=O)OCCCCCCCCCCCCCC (repeat unit)
28 | 177.00 °C | *c1cc(C(c2ccc(OCCN(C)c3ccc(/C=C/C4=CC(=C(/C#N)C(=O)OCCc5ccccc5)/CC(C)(C)C4)cc3)c(N3C(=O)c4ccc(Oc5ccc6c(c5)C(=O)N(*)C6=O)cc4C3=O)c2)(C(F)(F)F)C(F)(F)F)ccc1OCCN(c1ccccc1)c1ccc(/C=C/C2=CC(=C(/C#N)C(=O)OCCc3ccccc3)/CC(C)(C)C2)cc1 (repeat unit)
29 | 133.00 °C | *Oc1ccc(OC(=O)c2ccc(-c3ccc(C(*)=O)cc3)cc2-c2ccccc2)cc1C (repeat unit)
30 | 7.00 °C | *CCCCOC(=O)NCCCCNC(=O)O* (repeat unit)
31 | -62.00 °C | *O[Si](C)(C)O[Si](C)(C)O[Si](C)(C)c1ccc([Si](*)(C)C)cc1 (repeat unit)
32 | 182.00 °C | *Oc1ccc(Oc2ccc(C(=O)c3ccc(-c4ccc(C(=O)c5ccc(*)cc5)cc4)cc3)cc2)cc1-c1ccc(S(=O)(=O)O)c(C)c1 (repeat unit)
33 | 295.00 °C | *Oc1cc(C(C)(C)C)c(Oc2ccc(C(=O)Nc3c(C)cc(C(C)(C)c4cc(C)c(NC(=O)c5ccc(*)cc5)c(C)c4)cc3C)cc2)cc1C(C)(C)C (repeat unit)
34 | 178.50 °C | *Oc1ccc(C(C)(C)c2ccc(OC(=O)c3ccc(C(*)=O)cc3)c(C)c2)cc1C (repeat unit)
35 | 9.00 °C | *CC(F)(F)C(F)(F)COC(=O)NCCCCCCNC(=O)O* (repeat unit)
36 | 265.00 °C | *Oc1ccc(NC(=O)/C=C/C(=O)NNC(=O)/C=C/C(=O)Nc2ccc(OC(=O)/C=C/C(=O)NNC(=O)/C=C/C(*)=O)cc2)cc1 (repeat unit)
37 | 127.00 °C | *CCN(CCOC(=O)c1ccc(C(=O)O*)cc1)c1ccc(C=C(C#N)C#N)cc1 (repeat unit)
38 | 9.00 °C | *CC(*)(C)C(=O)OCCC[Si](OC)(OC)OC (repeat unit)
39 | 38.00 °C | *CC(*)(C)C(=O)OCc1ccc2c(c1)OCCOCCOCCOCCO2 (repeat unit)
40 | 321.00 °C | *c1ccc(Oc2cc(C(C)(C)C)ccc2Oc2ccc(-n3c(=O)c4cc5c(=O)n(*)c(=O)c5cc4c3=O)cc2)cc1 (repeat unit)
41 | 105.00 °C | *OC(COC(=O)c1ccccc1C(*)=O)COc1ccc(/N=N/c2ccc(C#N)cc2)cc1 (repeat unit)
42 | -22.00 °C | *CCCCCCCCCCCCCCCCOC(=O)C/C=C/CC(=O)O* (repeat unit)
43 | 33.00 °C | *CC(C)(C)COC(=O)Cc1ccc(C(=O)O*)cc1 (repeat unit)
44 | 360.00 °C | *c1cc(C(=O)O)cc(N2C(=O)CC(C3CC4C(=O)N(*)C(=O)C4c4ccccc43)C2=O)c1 (repeat unit)
45 | 255.00 °C | *c1ccc(-c2nc3cc(C(=O)c4ccc5nc(-c6ccccc6)c(-c6ccc(N7C(=O)C8OC9C(=O)N(*)C(=O)C9C8C7=O)cc6)nc5c4)ccc3nc2-c2ccccc2)cc1 (repeat unit)
46 | 290.00 °C | *c1ccc2c(c1)C(=O)N(c1ccc(Cc3ccc(N4C(=O)c5ccc(C(F)(F)C(F)(F)C(*)(F)F)cc5C4=O)cc3)cc1)C2=O (repeat unit)
47 | 240.00 °C | *CCCc1ccc(-c2c(-c3ccccc3)cc(-c3cccc(-c4cc(-c5ccccc5)c(-c5ccc(*)cc5)c(-c5ccccc5)c4-c4ccccc4)c3)c(-c3ccccc3)c2-c2ccccc2)cc1 (repeat unit)
48 | 63.00 °C | */C=C/c1ccc(/C=C/[Si](C)(C)c2ccc([Si](*)(C)C)cc2)cc1 (repeat unit)
49 | 122.30 °C | *c1ccc(-c2sc(-c3cc(CCCC)c(*)s3)cc2CCCC)cc1 (repeat unit)
50 | 91.00 °C | *OC(=O)C(CC(C)C)NC(=O)CCCCC(=O)NC(CC(C)C)C(=O)OC1COC2C(*)COC12 (repeat unit)
51 | 235.00 °C | *CC(=O)Nc1ccc(Oc2ccc(NC(=O)CN3C(=O)c4ccc(C(=O)c5ccc6c(c5)C(=O)N(*)C6=O)cc4C3=O)cc2)cc1 (repeat unit)
52 | 170.00 °C | *Oc1ccc(S(=O)(=O)c2ccc(OC(=O)c3cc(CCCCC)cc(C(*)=O)c3)cc2)cc1 (repeat unit)

Row | Compound | glass transition temperature
53 | *CC(*)c1ccc(C)cc1C (repeat unit) [Poly(2,4-dimethyl styrene) ] | 112 ± 0.6 °C
54 | *CC(=O)NC(C)C(=O)O* (repeat unit) | 54.60 °C
55 | *CCc1ccc(*)c(CCCC)c1 (repeat unit) | 20.00 °C
56 | *C[Si](*)(CCCCCC)CCCCCC (repeat unit) | -56.00 °C
57 | *CC(OCCCC)C1C(=O)OC(=O)C1* (repeat unit) | 118.00 °C
58 | *OP(=O)(Oc1ccccc1)Oc1c(Cl)c(Cl)c(*)c(Cl)c1Cl (repeat unit) | 79.00 °C
59 | *OC(CCCCC)CC(*)=O (repeat unit) | -33.00 °C
60 | *c1ccc(OCCN(CCOc2ccc(-c3cc(-c4ccccc4)c4cc(Oc5ccc6nc(*)cc(-c7ccccc7)c6c5)ccc4n3)cc2)c2ccc(C(C#N)=C(C#N)C#N)cc2)cc1 (repeat unit) | 175.00 °C
61 | *C1C2CC(C)C(C2)C1* (repeat unit) | 350.00 °C
62 | *c1ccc(N2C(=O)c3ccc(P(=O)(c4ccccc4)c4ccc5c(c4)C(=O)N(*)C5=O)cc3C2=O)cc1 (repeat unit) | 366.00 °C
